“And” between values parts separate entries of the source, which are not always exact repeats. Identical values can stand only once.
System: BDF1 mice, Adenocarcinoma 755 s.c., tumor weight T/C
Assay: NCI In Vivo Anticancer Drug Screen. Data for tumor model Adenocarcinoma 755 (subcutaneous) in B6D2F1 (BDF1) mice
Conditions: endpoint: mean tumor weight, schedule: Q01DX011 (ip), higher = larger tumour
Method in brief: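 Compound activity was tested in mice carrying transplanted tumors. Survival or tumor size was measured, and each value is the treated-group measurement divided by that of the vehicle-treated control group (T/C).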

[1] = dose: 15.0 mg/kg/injection, vehicle: methylcellulose (MC)
[2] = dose: 30.0 mg/kg/injection, vehicle: carboxymethylcellulose (CMC)
[3] = dose: 113.0 mg/kg/injection, vehicle: carboxymethylcellulose (CMC)
[4] = dose: 12.5 mg/kg/injection, vehicle: methylcellulose (MC)
[5] = dose: 25.0 mg/kg/injection, vehicle: methylcellulose (MC)
[6] = dose: 25.0 mg/kg/injection, vehicle: carboxymethylcellulose (CMC)
[7] = dose: 75.0 mg/kg/injection, vehicle: carboxymethylcellulose (CMC)
[8] = dose: 225.0 mg/kg/injection, vehicle: carboxymethylcellulose (CMC)
[9] = dose: 0.5 mg/kg/injection, vehicle: carboxymethylcellulose (CMC)
[10] = dose: 1.0 mg/kg/injection, vehicle: carboxymethylcellulose (CMC)

## Nc1nc(Nc2ccccc2Cl)cc(=O)[nH]1
[1]
  T/C: 119 % of control
dose: 62.0 mg/kg/injection, vehicle: methylcellulose (MC)
  T/C: 95 % of control

## ClCCN(CCCl)c1ccc(/C=C\c2ccnc3ccccc23)cc1
[2]
  T/C: 65 % of control and 75 % of control
dose: 115.0 mg/kg/injection, vehicle: carboxymethylcellulose (CMC)
  T/C: 47 % of control and 69 % of control
dose: 230.0 mg/kg/injection, vehicle: carboxymethylcellulose (CMC)
  T/C: 71 % of control

## CC1CN1P(=O)(N1CCc2ccccc21)N1CC1C (configuration not stated)
dose: 28.0 mg/kg/injection, vehicle: carboxymethylcellulose (CMC)
  T/C: 97 % of control
dose: 56.0 mg/kg/injection, vehicle: carboxymethylcellulose (CMC)
  T/C: 67 % of control
[3]
  T/C: 41 % of control
dose: 226.0 mg/kg/injection, vehicle: carboxymethylcellulose (CMC)
  T/C: 2 % of control

## Nc1nc(SCc2ccc(F)cc2)c2ncn(C3OC(CO)C(O)C3O)c2n1 (configuration not stated)
dose: 3.1 mg/kg/injection, vehicle: methylcellulose (MC)
  T/C: 86 % of control
dose: 6.2 mg/kg/injection, vehicle: methylcellulose (MC)
  T/C: 59 % of control
[4]
  T/C: 19 % of control
[5]
  T/C: 11 % of control

## CN(C)S(=O)(=O)c1nc2nc[nH]c2c(=O)[nH]1
[6]
  T/C: 70 % of control
[7]
  T/C: 66 % of control
[8]
  T/C: 85 % of control

## CC(C)n1cnc2c(Cl)ncnc21
dose: 4.0 mg/kg/injection, vehicle: carboxymethylcellulose (CMC)
  T/C: 101 % of control
dose: 8.0 mg/kg/injection, vehicle: carboxymethylcellulose (CMC)
  T/C: 115 % of control
dose: 16.0 mg/kg/injection, vehicle: carboxymethylcellulose (CMC)
  T/C: 92 % of control
dose: 62.0 mg/kg/injection, vehicle: carboxymethylcellulose (CMC)
  T/C: 4 % of control and 11 % of control
dose: 125.0 mg/kg/injection, vehicle: carboxymethylcellulose (CMC)
  T/C: 5 % of control and 8 % of control
dose: 250.0 mg/kg/injection, vehicle: carboxymethylcellulose (CMC)
  T/C: 8 % of control

## CC(=O)Nc1nc(SCc2ccccc2)c2ncn(C(C)=O)c2n1
dose: 7.5 mg/kg/injection, vehicle: methylcellulose (MC)
  T/C: 53 % of control
[1]
  T/C: 4 % of control
dose: 30.0 mg/kg/injection, vehicle: methylcellulose (MC)
  T/C: 2 % of control

## O=S(=O)(O)c1cccnc1
dose: 19.63 mg/kg/injection, vehicle: carboxymethylcellulose (CMC)
  T/C: 68 % of control
dose: 37.36 mg/kg/injection, vehicle: carboxymethylcellulose (CMC)
  T/C: 91 % of control and 101 % of control
dose: 39.25 mg/kg/injection, vehicle: carboxymethylcellulose (CMC)
  T/C: 99 % of control
dose: 62.5 mg/kg/injection, vehicle: methylcellulose (MC)
  T/C: 108 % of control
dose: 78.5 mg/kg/injection, vehicle: carboxymethylcellulose (CMC)
  T/C: 152 % of control
dose: 125.0 mg/kg/injection, vehicle: methylcellulose (MC)
  T/C: 76 % of control
dose: 157.0 mg/kg/injection, vehicle: carboxymethylcellulose (CMC)
  T/C: 79 % of control
dose: 250.0 mg/kg/injection, vehicle: methylcellulose (MC)
  T/C: 95 % of control
dose: 298.9 mg/kg/injection, vehicle: carboxymethylcellulose (CMC)
  T/C: 120 % of control

## CS(=O)(=O)c1nc(N)nc2nc[nH]c12
dose: 3.75 mg/kg/injection, vehicle: carboxymethylcellulose (CMC)
  T/C: 81 % of control
dose: 7.5 mg/kg/injection, vehicle: carboxymethylcellulose (CMC)
  T/C: 93 % of control and 81 % of control
[2]
  T/C: 5 % of control and 12 % of control

## CCCOP(=S)(N1CC1C)N1CC1(C)C (configuration not stated)
[9]
  T/C: 68 % of control
[10]
  T/C: 104 % of control
dose: 12.0 mg/kg/injection, vehicle: carboxymethylcellulose (CMC)
  T/C: 79 % of control
dose: 24.0 mg/kg/injection, vehicle: carboxymethylcellulose (CMC)
  T/C: 61 % of control

## Nc1ncnc2c1cnn2Cc1ccc(Cl)cc1
dose: 9.5 mg/kg/injection, vehicle: carboxymethylcellulose (CMC)
  T/C: 98 % of control
[7]
  T/C: 38 % of control

## Nc1ncnc2c1ccn2C1OC(CO)C(O)C1O (configuration not stated)
[9]
  T/C: 68 % of control
[10]
  T/C: 76 % of control

## CCOCCNS(=O)(=O)c1ncnc2nc[nH]c12
dose: 11.2 mg/kg/injection, vehicle: carboxymethylcellulose (CMC)
  T/C: 53 % of control
dose: 22.5 mg/kg/injection, vehicle: carboxymethylcellulose (CMC)
  T/C: 9 % of control
[2]
  T/C: 2 % of control
dose: 45.0 mg/kg/injection, vehicle: carboxymethylcellulose (CMC)
  T/C: 3 % of control
dose: 60.0 mg/kg/injection, vehicle: carboxymethylcellulose (CMC)
  T/C: 1 % of control

## O=C(O)Cc1ccc(C2CCCCC2)cc1
dose: 37.5 mg/kg/injection, vehicle: carboxymethylcellulose (CMC)
  T/C: 164 % of control
[7]
  T/C: 81 % of control
dose: 150.0 mg/kg/injection, vehicle: carboxymethylcellulose (CMC)
  T/C: 120 % of control
dose: 300.0 mg/kg/injection, vehicle: carboxymethylcellulose (CMC)
  T/C: 53 % of control

## O=NN(CCCl)C(=O)NCCCl
dose: 0.45 mg/kg/injection, vehicle: carboxymethylcellulose (CMC)
  T/C: 63 % of control and 66 % of control and 75 % of control
dose: 0.9 mg/kg/injection, vehicle: carboxymethylcellulose (CMC)
  T/C: 90 % of control and 98 % of control and 86 % of control
dose: 1.62 mg/kg/injection, vehicle: saline
  T/C: 93 % of control and 99 % of control
dose: 1.75 mg/kg/injection, vehicle: carboxymethylcellulose (CMC)
  T/C: 47 % of control
dose: 3.25 mg/kg/injection, vehicle: saline
  T/C: 79 % of control and 84 % of control
dose: 3.5 mg/kg/injection, vehicle: carboxymethylcellulose (CMC)
  T/C: 36 % of control and 40 % of control (2×)
dose: 6.5 mg/kg/injection, vehicle: carboxymethylcellulose (CMC)
  T/C: 32 % of control and 34 % of control
dose: 6.5 mg/kg/injection, vehicle: saline
  T/C: 59 % of control and 78 % of control
dose: 7.0 mg/kg/injection, vehicle: carboxymethylcellulose (CMC)
  T/C: 18 % of control (2×) and 40 % of control
dose: 13.0 mg/kg/injection, vehicle: carboxymethylcellulose (CMC)
  T/C: 13 % of control

## COc1cc(C(=O)[O][Hg][CH2]C2COC([CH2][Hg][O]C(=O)c3cc(OC)c(OC)c(OC)c3)CO2)cc(OC)c1OC (configuration not stated)
[6]
  T/C: 61 % of control

## O=c1[nH]c(S(=O)(=O)F)nc2nc[nH]c12
[6]
  T/C: 104 % of control
[7]
  T/C: 53 % of control

## CC(C)n1cc2c(N)ncnc2n1
[4]
  T/C: 55 % of control
dose: 12.5 mg/kg/injection, vehicle: saline
  T/C: 74 % of control
[5]
  T/C: 18 % of control
dose: 25.0 mg/kg/injection, vehicle: saline
  T/C: 14 % of control

## O=C1OC(c2cc(I)c(O)c(I)c2)(c2cc(I)c(O)c(I)c2)c2ccccc21
dose: 0.38 mg/kg/injection, vehicle: carboxymethylcellulose (CMC)
  T/C: 107 % of control
dose: 0.76 mg/kg/injection, vehicle: carboxymethylcellulose (CMC)
  T/C: 68 % of control
dose: 1.56 mg/kg/injection, vehicle: carboxymethylcellulose (CMC)
  T/C: 68 % of control

## CC(=O)OCCOc1ccc(C(C)(C)C)cc1
dose: 57.0 mg/kg/injection, vehicle: methylcellulose (MC)
  T/C: 57 % of control
[3]
  T/C: 122 % of control
dose: 113.0 mg/kg/injection, vehicle: methylcellulose (MC)
  T/C: 83 % of control
[8]
  T/C: 171 % of control
dose: 225.0 mg/kg/injection, vehicle: methylcellulose (MC)
  T/C: 47 % of control
dose: 450.0 mg/kg/injection, vehicle: carboxymethylcellulose (CMC)
  T/C: 107 % of control
dose: 500.0 mg/kg/injection, vehicle: carboxymethylcellulose (CMC)
  T/C: 70 % of control
dose: 600.0 mg/kg/injection, vehicle: carboxymethylcellulose (CMC)
  T/C: 65 % of control

Reference: PubChem BioAssay AID180 (DTP/NCI, 2004)
